This is an account of results in patent publication US9920073B2, “Compositions useful for inhibiting HIV-1 infection and methods using same” (Drexel University, priority 2013, dated 2018).

Read-outs that look alike come from different tables or passages of the source.

What all share (assay): microbe, parasite or virus in culture
Type in all cases: cell-based

Assay [1] concerns HIV-1JR-CSF.
Assay [2] deals with HIV-1HxBc2. The conditions noted are these: Human immunodeficiency virus 1, read-out: IC50 HxBc2.
Assay [3] deals with HIV-1YU-2.
In assay [4] the test system is amphotropic murine leukemia virus (AMLV). The conditions noted are these: for IC50: specificity control.
The mark [5] stands for this setting: Human immunodeficiency virus 1, read-out: IC50 JR-CSF.
Where [6] appears, read: Human immunodeficiency virus 1, read-out: IC50 YU-2, single round infection assay.
The mark [7] stands for this setting: Murine leukemia virus, read-out: IC50 AMLV, Table 2 screening results.
[8] abbreviates: read-out: IC50 JR-CSF, single round infection assay.
[9] abbreviates: read-out: IC50 YU-2, single round infection assay.
The mark [10] stands for this setting: read-out: IC50 AMLV, Table 2 screening results.

The IC50 is the concentration that inhibits the measured activity by half. Consider `COc1cnc(-n2cnc(C)n2)c2[nH]cc(C(=O)C(=O)N3CC4C=NN(c5cccc(C)n5)C4C3)c12` (stereo not drawn) [SC24, 1-(4-methoxy-7-(3-methyl-1H-1,2,4-triazol-1-yl)-1H-pyrrolo[2,3-c]pyridin-3-yl)-2-(1-(6-methylpyridin-2-yl)-3a,4,6,6a-tetrahydropyrrolo[3,4-c]pyrazol-5(1H)-yl)ethane-1,2-dione], for which, in assay [1] (setting [5]), the IC50 turned out to be 0.7 ± 0.4 µM.

As for `Cc1ncn(-c2ncc(F)c3c(C(=O)C(=O)N4CC5C=NN(c6nnnn6-c6ccccc6)C5C4)c[nH]c23)n1` (stereo not drawn) [SC39, 1-(4-fluoro-7-(3-methyl-1H-1,2,4-triazol-1-yl)-1H-pyrrolo[2,3-c]pyridin-3-yl)-2-(1-(1-phenyl-1H-tetrazol-5-yl)-3a,4,6,6a-tetrahydropyrrolo[3,4-c]pyrazol-5(1H)-yl)ethane-1,2-dione], the IC50 in assay [2] came to 35.3 ± 9.3 µM.

Consider `COc1cnc(-n2cnc(C)n2)c2[nH]cc(C(=O)C(=O)NCC3CN(C(=O)c4ccccc4)C3)c12` [SC14, N-((1-benzoylazetidin-3-yl)methyl)-2-(4-methoxy-7-(3-methyl-1H-1,2,4-triazol-1-yl)-1H-pyrrolo[2,3-c]pyridin-3-yl)-2-oxoacetamide], for which the concentration for half-maximal inhibition (IC50) in assay [1] (setting [5]) came to 2.5 ± 0.4 µM; in assay [2] it was 1.2 ± 0.4 µM.

Consider `O=C(c1ccccc1)N1CCN(C(=O)c2csc(-c3ccccc3)n2)CC1` [Compound 16], for which the half-maximal inhibitory concentration (IC50) in assay [3] (setting [6]) and in assay [4] (setting [7]) was more than 300 µM throughout.

On to `O=C(c1ccccc1)N1CC2CN(C(=O)c3ccc4c5c(cccc35)CC4)CC2C1` (stereo not drawn) [SC04, (5-benzoylhexahydropyrrolo[3,4-c]pyrrol-2(1H)-yl)(1,2-dihydroacenaphthylen-5-yl)methanone], for which the half-maximal inhibitory concentration (IC50) worked out at 100 ± 30 µM in assay [1] (setting [8]) and 70 ± 6 µM in assay [3] (setting [6]).

On to `Cc1cnc2c(S(=O)(=O)N3CCN(C(=O)c4ccc(C)s4)CC3)cccc2c1` [Compound 35], for which the IC50 in assay [3] (setting [6]) and in assay [4] (setting [7]) was more than 50 µM in each case.

As for `Cc1c(C)c(C)c(S(=O)(=O)N2CCN(C(=O)c3cccnc3O)CC2)c(C)c1C` [Compound 21], the half-inhibitory concentration (IC50) in assay [3] (setting [6]) and in assay [4] (setting [7]) was more than 300 µM throughout.

As for `O=C(COc1cccc2ccccc12)N1CCN(C(=O)c2ccccc2)CC1` [Compound 12], the results for the IC50 in assay [3] (setting [6]) and in assay [4] (setting [7]) were 53.3 ± 3.7 µM and more than 300 µM, respectively.

For `O=C(COc1cccc(Br)c1)N1CCN(C(=O)c2ccccc2)CC1` [Compound 6], the IC50 in assay [3] (setting [6]) and in assay [4] (setting [7]) was more than 300 µM in each case.

For `O=C(c1ccccc1)N1CCN(C(=O)c2ccc(N3CCOCC3)c([N+](=O)[O-])c2)CC1` [Compound 29], the IC50 in assay [3] (setting [6]) and in assay [4] (setting [7]) was more than 50 µM in each case.

For the compound `Cc1[nH]c2ccccc2c1C(=O)C(=O)N1CCC(C(=O)c2ccc(O)cc2)CC1` [Compound 40], the IC50 in assay [3] (setting [6]) and in assay [4] (setting [7]) was more than 50 µM throughout.

`COc1cnc(-n2cnc(C)n2)c2[nH]cc(C(=O)C(=O)N3CC=C(CNC(=O)c4ccccc4)CC3)c12` [SC45, N-((1-(2-(4-methoxy-7-(3-methyl-1H-1,2,4-triazol-1-yl)-1H-pyrrolo[2,3-c]pyridin-3-yl)-2-oxoacetyl)-1,2,3,6-tetrahydropyridin-4-yl)methyl)benzamide]: the IC50 in assay [1] (setting [5]) came to 0.15 ± 0.009 µM; in assay [2] it was 0.1 ± 0.03 µM.

Regarding `O=C(CSC1=Nc2ccccc2CS1)N1CCN(C(=O)c2cccs2)CC1` [Compound 41], the 50% inhibitory concentration (IC50) in assay [3] (setting [6]) and in assay [4] (setting [7]) was more than 50 µM each time.

`O=C(CSc1ncnc2sccc12)N1CCN(C(=O)c2cccs2)CC1` [Compound 28]: the half-inhibitory concentration (IC50) is 1.6 ± 0.4 µM in assay [3] (setting [6]) and more than 50 µM in assay [4] (setting [7]).

As for `Cc1ccc2nc(C)c(C(=O)N3CCN(C(=O)c4ccccc4)CC3)cc2c1` [Compound 9], the concentration for half-maximal inhibition (IC50) in assay [3] (setting [6]) and in assay [4] (setting [7]) was more than 300 µM in each case.

As for `Cc1nc2ccc(Cl)cc2cc1C(=O)N1CCN(S(=O)(=O)c2ccccc2)CC1` [Compound 17], the results for the half-maximal inhibitory concentration (IC50) in assay [3] (setting [6]) and in assay [4] (setting [7]) were 193 µM and 238 µM, respectively.

As for `COc1ccc(O)cc1NCC(=O)N1CCN(S(=O)(=O)c2ccc3c(c2)CCC3)CC1` [Compound 42], the half-inhibitory concentration (IC50) in assay [3] (setting [6]) and in assay [4] (setting [7]) was more than 50 µM throughout.

`Cc1ccc(C(C)C)c(OCC(=O)N2CCN(C(=O)c3ccccc3)CC2)c1` [Compound 18]: the 50% inhibitory concentration (IC50) in assay [3] (setting [9]) and in assay [4] (setting [10]) was more than 300 µM in each case.

Take `O=C(COc1cccc2ccccc12)N1CCN(C(=O)c2ccccc2F)CC1` [Compound 33]: the IC50 in assay [3] (setting [6]) and in assay [4] (setting [7]) was more than 50 µM throughout.

`CCc1ccc(C(=O)N2CCN(C(=O)c3cc4cc(C)ccc4nc3C)CC2)cc1` [Compound 22]: the IC50 in assay [3] (setting [6]) and in assay [4] (setting [7]) was more than 300 µM in each case.

As to `COc1ccc(OC)c(CCC(=O)N2CCN(C(=O)c3cccc(OC(F)F)c3)CC2)c1` [Compound 44], the IC50 in assay [3] (setting [6]) and in assay [4] (setting [7]) was more than 50 µM in each case.

`O=C(C(=O)N1CC2C=NN(c3ccccc3)C2C1)c1c[nH]c2c(-n3ccnn3)ncc(F)c12` (stereo not drawn) [SC38, 1-(4-fluoro-7-(1H-1,2,3-triazol-1-yl)-1H-pyrrolo[2,3-c]pyridin-3-yl)-2-(1-phenyl-3a,4,6,6a-tetrahydropyrrolo[3,4-c]pyrazol-5(1H)-yl)ethane-1,2-dione]: the 50% inhibitory concentration (IC50) in assay [2] was 0.008 ± 0.003 µM.

As for `O=C(c1ccccc1)N1CCN(C(=O)c2ccc3c4c(cccc24)CC3)CC1` [Compound 11], the values for the IC50 in assay [3] (setting [9]) and in assay [4] (setting [7]) were 15.7 µM and more than 300 µM, respectively.

For the compound `COc1cnc(-n2cnc(C)n2)c2[nH]cc(C(=O)C(=O)N3CC4CN(C(=O)c5ccccc5)CC4C3)c12` (stereo not drawn) [SC11, 1-(5-benzoylhexahydropyrrolo[3,4-c]pyrrol-2(1H)-yl)-2-(4-methoxy-7-(3-methyl-1H-1,2,4-triazol-1-yl)-1H-pyrrolo[2,3-c]pyridin-3-yl)ethane-1,2-dione], in assay [1] (setting [8]), the IC50 worked out at 0.0008 ± 0.0004 µM. Besides, in assay [4] (single round infection assay, in words), the “specificity to HIV-1 (inhibition of AMLV-pseudotyped HIV-1)” value was “retaining HIV-1 specificity”.

For `O=C(c1ccccc1)N1CCN(C(=O)c2ccc3c4c(cccc24)CC3)CC1` [SC03, (4-benzoylpiperazin-1-yl)(1,2-dihydroacenaphthylen-5-yl)methanone], the IC50 was found to be 0.42 ± 0.28 µM in assay [1] (setting [5]) and 13.1 ± 1.7 µM in assay [3] (setting [6]).

Consider `CCc1cc(C(=O)N2CCN(C(=O)c3ccccc3)CC2)sc1C` [Compound 5], for which the IC50 in assay [3] (setting [6]) and in assay [4] (setting [7]) was more than 300 µM in each case.

For the compound `O=C(COc1ncnc2sc(-c3ccccc3)cc12)N1CCN(C(=O)c2ccco2)CC1` [Compound 26], the half-inhibitory concentration (IC50) in assay [3] (setting [6]) and in assay [4] (setting [7]) was more than 50 µM throughout.

`O=C(c1cc(-c2ccc(Cl)cc2)on1)N1CCN(S(=O)(=O)c2ccccc2F)CC1` [Compound 14]: the half-maximal inhibitory concentration (IC50) in assay [3] (setting [6]) and in assay [4] (setting [7]) was more than 300 µM throughout.

Consider `O=C(c1ccccc1)N1CCN(C(=O)c2cc(-c3ccncc3)nc3ccccc23)CC1` [Compound 27], for which the half-inhibitory concentration (IC50) in assay [3] (setting [6]) and in assay [4] (setting [7]) was more than 50 µM throughout.

Regarding `O=C(c1cnccn1)N1CCN(C(=O)c2cc3ccccc3cc2O)CC1` [Compound 24], the IC50 in assay [3] (setting [6]) and in assay [4] (setting [7]) was more than 300 µM throughout.

Take `Cc1nn(-c2ccccc2)c(C)c1C(=O)C(=O)N1CCN(C(=O)c2ccccc2)CC1` [Compound 36]: the IC50 in assay [3] (setting [9]) and in assay [4] (setting [10]) was more than 50 µM throughout.

Regarding `COc1ccc(Br)cc1C=CC(=O)N1CCC(C(=O)c2ccccc2)CC1` [Compound 15], the IC50 is 156 µM in assay [3] (setting [6]) and 210 µM in assay [4] (setting [7]).

`O=C(Cc1cccc2ccccc12)N1CCN(C(=O)c2ccco2)CC1` [Compound 32]: the figures for the half-maximal inhibitory concentration (IC50) in assay [3] (setting [6]) and in assay [4] (setting [7]) were 22.8 µM and more than 50 µM, respectively.
